Results taken from patent US9784732B2, “Acidic environment-detecting fluorescent probe” (THE UNIVERSITY OF TOKYO, priority 2011, dated 2017).
Read-outs that look alike come from different tables or passages of the source. Each block holds one compound with its values, some of them ahead of it.

How the values were obtained:
HER2 = test: High-throughput evaluation of HER2 downregulation; type: cell-based; conditions: 17-AAG 10 μM with Compound 3 30 nm; SKOV3 cells expressing HER2-HaloTag; five hours; versus DMSO
Experimental: The pH-sensitive fluorescent probe Compound 3 and 17-AAG (Wako Pure Chemicals) were diluted with water. An equal amount of DMSO (Sigma-Aldrich) was added as a control for the 17-AAG. SKOV3 cells expressing the HER2-HaloTag were suspended in RPMI (Nacalai Tesque) containing 2% FBS (CCB), implanted in a 384-well imaging plate (PerkinElmer), and cultured overnight at 37° C. in a 5% CO2 atmosphere.
Compound 3 and 17-AAG were added to […] of a 384-well imaging plate implanted with SKOV3 cells expressing the HER2-HaloTag to respective final concentrations of 30 nm and 10 μM. DMSO alone was added to 32 wells instead of 17-AAG as a control. Fluorescence values at 580 nm induced by 535 excitation were measured using a plate reader, after which culturing was performed at 37° C. in a 5% CO2 atmosphere for five hours, and fluorescence values were again measured using the plate reader. […] In this way, it is possible to simply evaluate downregulation of the cancer-related receptor HER2 via fluorescence values.

[1] = Optical properties and fluorescence quantum yield; type: physicochemical; conditions: for Maximum Absorption Wavelength (nm) / Maximum Emission Wavelength (nm): 200 mM sodium phosphate buffer, 0.03% (v/v) DMSO
Experimental: (§1) In order to measure absorption and fluorescence spectra, a dye compound was dissolved in dimethyl sulfoxide (DMSO, fluorescent analysis-grade, Dojindo) to obtain 1 mM of standard solution. Using a UV-1650 PCUV/V spectrometer (Shimadzu) and an FP-6600 fluorescence spectrometer (JASCO), the optical properties of the dye compound in 200 mM of a sodium phosphate buffer solution containing 0.03% (v/v) DMSO as a cosolvent were measured. In order to determine fluorescence quantum yield (Φf1), the value (Φf1=0.65) of Rhodamine B in ethanol was used as a standard. The value was calculated according to the following formula. Φx/Φst=[Ast/Ax][nx^2/nst^2][Dx/Dst]
The absorption spectrum and fluorescence emission spectrum when solution pH was altered from 2.0 to 10.0 for Compound A obtained in Example 1 were obtained according to the measurement method described above. Absorption spectra are shown in FIG. 1-1, fluorescence emission spectra in FIG. 1-2, and a pH profile showing pH-induced changes in fluorescent intensity in FIG. 1-3. The maximum absorption wavelength, maximum emission wavelength, fluorescent quantum yield, and pKa when pH is changed from 10.0 to 4.0 are shown in table 1.

[2] = pH profile of fluorescent intensity (pKa) in phosphate buffer; type: physicochemical; conditions: sodium phosphate buffer, from pH profile of fluorescent intensity
Experimental: as §1
The absorption spectrum and fluorescence emission spectrum when solution pH was altered from 2.0 to 10.0 for Compound A obtained in Example 1 were obtained according to the measurement method described above.
Using a 100 mM phosphate buffer solution of Compound 1 (500 nM) obtained in Example 2, pH was altered from 4.39 to 9.24, and the fluorescence spectrum was measured.
A fitted curve for the pH profile was obtained according to the following formula.
Next, in order to investigate the reversibility of pH changes in Dye Conjugate 1, the fluorescent intensity ratio (fluorescent intensity at 540 nm/fluorescent intensity at 488 nm) was calculated for a case in which pH was cycled between 7.1 and 3.2 every 30 seconds.

[3] = in ethanol; cited from earlier work

Structure (SMILES): C=CCNC1=C2C[C@@H](C)C[C@H](OC)[C@H](O)[C@@H](C)/C=C(\C)[C@H](OC(N)=O)[C@@H](OC)/C=C\C=C(/C)C(=O)NC(=CC1=O)C2=O [Compound 17-AAG]
Difference in fluorescence values before and after culturing (F5−F0) (HER2): large increase in fluorescence values

Shift of maximum absorption wavelength to shorter wavelength ([1]; deprotonated type (pH 10.0) to protonated type (pH 4.0)): 20 nm
Maximum Absorption Wavelength (nm) ([1]; pH 4.0): 527 nm
Maximum Emission Wavelength (nm) ([1]; pH 4.0): 554 nm
Fluorescence Quantum Yield ([1]; pH 10.0 (deprotonated type), standard Rhodamine B in ethanol): 0.024
Maximum Absorption Wavelength (nm) ([1]; pH 10.0): 547 nm
Maximum Emission Wavelength (nm) ([1]; pH 10.0): 575 nm
pKa ([2]; read-out: pKa (higher, pKa2)): 6.8
pKa ([2]; read-out: pKa (lower, pKa1)): 5.4
Structure (SMILES): CN1CCN(c2ccc3c(-c4ccccc4C(=O)O)c4ccc(=[N+]5CCN(C)CC5)cc-4oc3c2)CC1.[Cl-] [Compound A, 1-(9-(2-carboxyphenyl)-6-(4-methylpiperazine-1-yl)-3H-xanthene-3-ylidene)-4-methylpiperazine-1-ium chloride]

pKa ([2]; read-out: pKa (higher, pKa2)): 6.6
pKa ([2]; read-out: pKa (lower, pKa1)): 5.3
Structure (SMILES): CN1CCN(c2ccc3c(-c4ccccc4C(=O)N(C)CC(=O)NCCOCCOCCOCCC(=O)[O-])c4ccc(=[N+]5CCN(C)CC5)cc-4oc3c2)CC1 [Compound D, 2-methyl-1-(2-(3-(4-methylpiperazine-1-ium-1-ylidene)-6-(4-methylpiperazine-1-yl)-3H-xanthene-9-yl)phenyl)-1,4-dioxo-8,11,14-trioxa-2,5-diazaheptadecane-17-oate]

Structure (SMILES): CCN(CC)c1ccc2c(-c3ccccc3C(=O)O)c3ccc(=[N+](CC)CC)cc-3oc2c1.[Cl-] [Rhodamine B]
Fluorescence Quantum Yield of the standard [3]: 0.65
